Data: patent US9062056B2, “Aza-benzimidazolone Chymase inhibitors” (Boehringer Ingelheim International GmbH, priority 2008, dated 2015)

Molecular target: T1, Chymase (Homo sapiens, UniProt P23946)
T1 sequence (P23946 22-247): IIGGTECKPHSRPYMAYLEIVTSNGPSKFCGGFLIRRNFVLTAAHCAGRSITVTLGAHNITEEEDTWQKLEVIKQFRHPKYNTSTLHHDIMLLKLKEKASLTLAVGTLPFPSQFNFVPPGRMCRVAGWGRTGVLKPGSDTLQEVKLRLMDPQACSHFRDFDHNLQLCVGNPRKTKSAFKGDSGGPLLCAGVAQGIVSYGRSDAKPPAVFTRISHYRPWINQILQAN
Test: In vitro assay for inhibition of Chymase (rhodamine 110 peptide substrate, fluorescence)
Assay type: biochemical
Details: 500 pM chymase, 100 nM substrate, 100 μM TCEP, 1% DMSO, 28° C., 1 hour
Description: IN VITRO ASSAY FOR INHIBITION OF CHYMASE
Chymase assays were performed in a total volume of 15 μL in Corning black opaque 384-well microtiter plates with a non-binding surface (Corning, N.Y.). The assay buffer was comprised of 20 mM Tris HCl pH 8.0, 50 mM NaCl, 0.01% CHAPS. The test compounds were serially diluted 3-fold with neat DMSO in a 96-well polypropylene plate from a 10 mM DMSO stock to give the 10 point dose response curve. 3 μL of the resulting DMSO solution were transferred to a 384-well polypropylene plate in duplicate, and 37 μL of assay buffer was added. Chymase was added to the assay plate in 3 uL of assay buffer followed by 2 uL of the appropriate compound dilution using a PlateMate Plus (Matrix Technologies Corp., Hudson, N.H.). The reaction was initiated by the addition of 10 uL rhodamine 110, bis-(succinoyl-L-alanyl-L-alanyl-L-prolyl-L-phenylalanylamide) (American Peptides, Sunnyvale, Calif.) in assay buffer containing 150 μM tris(2-carboxyethyl)phosphine (TCEP, Pierce Chemical, Rockford, Ill.) using a Multidrop (Thermo Electron Corp., Waltham, Mass.). Final assay concentrations were 500 pM chymase, 100 nM substrate, 100 μM TCEP, and 1% DMSO. The plates were incubated at 28° C. and 80% humidity for 1 hour, at which time the fluorescence was read on a Viewlux 1430 Microplate Imager (Perkin Elmer Life Sciences, Boston, Mass.) with 485 nm excitation, 530 nm emission, and a fluorescein dichroic mirror. The percentage of control values were calculated relative to assay blanks containing complete reaction minus chymase and a 100% control containing assay buffer with 1% DMSO in place of compound. IC50 values were obtained by fitting the data using XLFit4 (IDBS Software).

Row | Compound | IC50
1 | Cc1cc(C)c2c(Cn3c(=O)n([C@H](CC(=O)O)c4ccccc4)c4ccncc43)nsc2c1 [(R)-3-[3-(4,6-Dimethyl-benzo[d]isothiazol-3-ylmethyl)-2-oxo-2,3-dihydro-imidazo[4,5-c]pyridin-1-yl]-3-phenyl-propionic acid] | 11.2 nM
2 | Cc1cc(C)c2c(Cn3c(=O)n([C@H](CC(=O)O)c4ccc(Cl)cc4)c4nc(C#N)ccc43)cn(C)c2c1 [(R)-3-(4-Chloro-phenyl)-3-[5-cyano-2-oxo-1-(1,4,6-trimethyl-1H-indol-3-ylmethyl)-1,2-dihydro-imidazo[4,5-b]pyridin-3-yl]-propionic acid] | 0.2 nM
3 | CCC[C@@H](CC(=O)NS(=O)(=O)C(C)(C)C)n1c(=O)n(Cc2cn(C)c3cccc(C)c23)c2cccnc21 [2-Methyl-propane-2-sulfonic acid {(S)-3-[1-(1,4-dimethyl-1H-indol-3-ylmethyl)-2-oxo-1,2-dihydro-imidazo[4,5-b]pyridin-3-yl]-hexanoyl}-amide] | 1 nM
4 | Cc1cc2c(cn1)n(Cc1cn(C)c3cccc(C)c13)c(=O)n2[C@H](CC(=O)O)c1ccccc1 [(R)-3-[3-(1,4-Dimethyl-1H-indol-3-ylmethyl)-6-methyl-2-oxo-2,3-dihydro-imidazo[4,5-c]pyridin-1-yl]-3-phenyl-propionic acid] | 2.62 nM
5 | CCC[C@@H](CC(=O)O)n1c(=O)n(Cc2cn(C)c3cccc(C)c23)c2cccnc21 [(S)-3-[1-(1,4-Dimethyl-1H-indol-3-ylmethyl)-2-oxo-1,2-dihydro-imidazo[4,5-b]pyridin-3-yl]-hexanoic acid] | 4.93 nM
6 | Cc1cccc2c1c(Cn1c(=O)n([C@H](CC(=O)O)c3ccc(F)cc3)c3nc(C#N)ccc31)cn2C [(R)-3-[5-Cyano-1-(1,4-dimethyl-1H-indol-3-ylmethyl)-2-oxo-1,2-dihydro-imidazo[4,5-b]pyridin-3-yl]-3-(4-fluoro-phenyl)-propionic acid] | 0.245 nM
7 | Cc1cc(C)c2c(Cn3c(=O)n(CC4(C(=O)O)CCCCC4)c4nc(C)ccc43)nsc2c1 [1-[1-(4,6-Dimethyl-1,2-benzisothiazol-3-ylmethyl)-5-methyl-2-oxo-1,2-dihydro-imidazo[4,5-b]pyridin-3-ylmethyl]-cyclohexanecarboxylic acid] | 1.45 nM
8 | Cc1cccc2c1c(Cn1c(=O)n([C@H](CC(=O)O)c3ccc(Cl)cc3)c3nc(C#N)ccc31)cn2C [(R)-3-(4-Chloro-phenyl)-3-[5-cyano-1-(1,4-dimethyl-1H-indol-3-ylmethyl)-2-oxo-1,2-dihydro-imidazo[4,5-b]pyridin-3-yl]-propionic acid] | 0.165 nM
9 | Cc1cccc2c1c(Cn1c(=O)n([C@H](CC(=O)O)c3ccccc3)c3ncccc31)cn2C [(R)-3-[1-(1,4-Dimethyl-1H-indol-3-ylmethyl)-2-oxo-1,2-dihydro-imidazo[4,5-b]pyridin-3-yl]-3-phenyl-propionic acid] | 2.21 nM
10 | Cc1cccc2c1c(Cn1c(=O)n([C@H](CC(=O)O)c3ccccc3)c3nc(C4CC4)ncc31)cn2C [(R)-3-[2-Cyclopropyl-7-(1,4-dimethyl-1H-indol-3-ylmethyl)-8-oxo-7,8-dihydro-purin-9-yl]-3-phenyl-propionic acid] | 5 nM
11 | CCC[C@@H](CC(=O)O)n1c(=O)n(Cc2cn(C)c3cccc(C)c23)c2ccc(C)nc21 [(S)-3-[1-(1,4-Dimethyl-1H-indol-3-ylmethyl)-5-methyl-2-oxo-1,2-dihydro-imidazo[4,5-b]pyridin-3-yl]-hexanoic acid] | 4.48 nM
12 | Cc1cc(C)c2c(Cn3c(=O)n([C@H](CC(=O)O)c4ccccc4)c4nc(C#N)ccc43)cn(C)c2c1 [(R)-3-[5-Cyano-2-oxo-1-(1,4,6-trimethyl-1H-indol-3-ylmethyl)-1,2-dihydro-imidazo[4,5-b]pyridin-3-yl]-3-phenyl-propionic acid] | 0.6 nM
13 | Cc1cc(C)c2c(Cn3c(=O)n([C@H](CC(=O)O)c4ccccc4)c4cc(C)ncc43)nsc2c1 [(R)-3-[3-(4,6-Dimethyl-1,2-benzisothiazol-3-ylmethyl)-6-methyl-2-oxo-2,3-dihydro-imidazo[4,5-c]pyridin-1-yl]-3-phenyl-propionic acid] | 4 nM
14 | Cc1cccc2c1c(Cn1c(=O)n([C@H](CC(=O)O)c3ccccc3)c3ccncc31)cn2C [(R)-3-[3-(1,4-Dimethyl-1H-indol-3-ylmethyl)-2-oxo-2,3-dihydro-imidazo[4,5-c]pyridin-1-yl]-3-phenyl-propionic acid] | 3.91 nM
15 | CCCC(Cn1c(=O)n(Cc2cn(C)c3cccc(C)c23)c2cccnc21)C(=O)O (stereo not drawn) [2-[1-(1,4-Dimethyl-1H-indol-3-ylmethyl)-2-oxo-1,2-dihydro-imidazo[4,5-b]pyridin-3-ylmethyl]-pentanoic acid] | 3 nM
